Measurements from patent publication US20130190275A1, “COMBINED THERAPIES OF ANTIPSYCHOTIC DRUGS AND TETRACYCLINES IN THE TREATMENT OF PSYCHIATRIC DISORDERS” (MOR RESEARCH APPLICATIONS LTD., priority 2006, published 2013).

Key:
Format in all cases: in vivo, human
[1] = tested on: patients who experience first psychotic episode; test: CANTAB Spatial Working Memory (SWM), adjuvant study; conditions: atypical antipsychotic drug+minocycline 200 mg/day vs +placebo
Description: The study was carried out in patients who experience first psychotic episode, and has followed the patient for a total duration of 6 months. As the study examines Minocycline as an adjuvant drug, the sample includes patients receiving one of the following atypical anti-psychotic drugs: Risperdal, Zyprexa, Geodon, Seroquel, and Leponex. […] In addition, the subjects were assessed by a battery of computerized neuropsychological tests (CANTAB—Cambridge Neuropsychological Test Automated Battery), measuring attention, memory, and planning. Executive function was tested by two tasks of the CANTAB: planning was tested by a computerized modification of the Tower of London, and working memory by a spatial working memory task. Minocycline was given as an add-on therapy. […] Clinical status was evaluated by the aforementioned scales at the onset of the study, every week for the first 6 weeks, and then once a month for the rest of the study period. Cognitive capabilities were assessed by the neuropsychological battery of tests according to the following schedule: upon initiation of the study (referred to as visit 1 in FIGS. 5-8), 3 months (referred to as visit 2 in FIGS. 5-8), and 6 months (referred to as visit 3 in FIGS. 5-8) after the start of the study. […]

[2] = tested on: patients who experience first psychotic episode; test: Calgary Depression Scale for Schizophrenia, adjuvant study; conditions: atypical antipsychotic drug+minocycline 200 mg/day vs +placebo; p=0.099, n.s.
Description: (§1) The study was carried out in patients who experience first psychotic episode, and has followed the patient for a total duration of 6 months. As the study examines Minocycline as an adjuvant drug, the sample includes patients receiving one of the following atypical anti-psychotic drugs: Risperdal, Zyprexa, Geodon, Seroquel, and Leponex. […] Initial evaluation included the following clinical measures: • SCID (for reliability of diagnosis) • CGI (Clinical Global Impression) • PANSS (Positive and Negative Syndrome Scale for Schizophrenia) • SANS (Scale for the Assessment of Negative Symptoms) • Calgary Depression Scale for Schizophrenia • GAF • GRAF • Insight and Treatment Attitudes Questionnaire • QLS (Quality of Life Scale) • Multinomah Community Ability Scale • Extrapyramidal Side Effects Scale. Minocycline was given as an add-on therapy. […] Clinical status was evaluated by the aforementioned scales at the onset of the study, every week for the first 6 weeks, and then once a month for the rest of the study period. Cognitive capabilities were assessed by the neuropsychological battery of tests according to the following schedule: upon initiation of the study (referred to as visit 1 in FIGS. 5-8), 3 months (referred to as visit 2 in FIGS. 5-8), and 6 months (referred to as visit 3 in FIGS. 5-8) after the start of the study. […]

[3] = tested on: patients who experience first psychotic episode; test: GRAF score, adjuvant study; conditions: atypical antipsychotic drug+minocycline 200 mg/day vs +placebo; group x time p<0.05
Description: as §1

[4] = Body weight change 12 weeks after start of treatment, adjuvant study; conditions: atypical antipsychotic drug+minocycline 200 mg/day
Description: The study was carried out in patients who experience first psychotic episode, and has followed the patient for a total duration of 6 months. As the study examines Minocycline as an adjuvant drug, the sample includes patients receiving one of the following atypical anti-psychotic drugs: Risperdal, Zyprexa, Geodon, Seroquel, and Leponex. […] Minocycline was given as an add-on therapy. Prior to randomization into minocycline/placebo adjuvant treatment, a preliminary (lead-in phase) screening phase of placebo treatment was undertaken: Placebo was given as an adjuvant to all patients for two weeks. […] Randomization was then carried out by the principal investigator. The raters and evaluators of the subjects participating in the study were blind to the randomization. […] The body weight of the patients was measured at the start of the study and then 12 weeks later (FIG. 12).

**Q.** For CN(C)c1ccc(O)c2c1C[C@H]1C[C@H]3[C@H](N(C)C)C(O)=C(C(N)=O)C(=O)[C@@]3(O)C(O)=C1C2=O [minocycline], which SWM between errors ([1]; p<0.0001) is on record?
**A.** improved significantly more than the placebo group

**Q.** And the SWM strategy score ([1]; p<0.05)?
**A.** improved significantly more than the placebo group

**Q.** What about the “Total Calgary Score” value [2] of the same molecule?
**A.** tended to reach greater improvement

**Q.** What about the GRAF score [3] of the same molecule?
**A.** greater improvement of the GRAF score

**Q.** And the “proportion of patients who gained weight” value [4]?
**A.** 31%

**Q.** And the “proportion of patients who lost weight” value [4]?
**A.** 46%
